Literature values, collected in patent publication US10314836B2, “Quinoline carboxamides for use in the treatment of multiple myeloma” (Active Biotech AB, priority 2014, dated 2019).

System: castrate resistant prostate cancer (CRPC) metastatic to the bone
Conditions: oral treatment

## COc1cccc2c1c(O)c(C(=O)N(C)c1ccc(C(F)(F)F)cc1)c(=O)n2C [tasquinimod, 4-hydroxy-5-methoxy-N,1-dimethyl-2-oxo-N-[4-(trifluoromethyl)phenyl]-1,2-dihydroquinoline-3-carboxamide]
  effect on overall survival: lack a sufficient effect on overall survival
